Assay results: patent US20260035376A1, “COMPOSITIONS AND METHODS FOR INHIBITION OF RAS” (TheRas, Inc., priority 2022, published 2026)

How the values were obtained:
[1] = target: T1, Avi-KRAS G12D (1-169) GppNHp/RAF1 RBD-3×FLAG (52-151) (Homo sapiens, UniProt P01116, G12D); experiment: Disrupting RAS-effector binding HTRF assay, Raf1 RBD-KRAS G12D-GppNHp; details: PPI HTRF, 50 nM Avi-KRAS G12D GppNHp, compound titration 30-0.0045 μM; read-out: Raf1 RBD-KRAS G12D-GppNHp disruption
T1 construct: 50 nM Avi-KRAS G12D (1-169) GppNHp/RAF1 RBD-3×FLAG (52-151)
Procedure: (§1) A protein:protein interaction (PPI) Homogeneous Time Resolved Fluorescence (HTRF) assay was used to determine the effectiveness of compounds of the present disclosure in disrupting KRAS protein and effector RAF1 binding.
(§2) The HTRF assay used the following reagents and proteins: (i) 50 nM Avi-KRAS G12D (1-169) GppNHp/RAF1 RBD-3×FLAG (52-151); (ii) 50 nM Avi-KRAS G12R (1-169) GppNHp/RAF1 RBD-3×FLAG (52-151); (iii) 50 nM Avi-KRAS G12V (1-169) GppNHp/RAF1 RBD-3×FLAG (52-151), (iv) 50 nM Avi-KRAS WT (1-169) GppNHp/RAF1 RBD-3×FLAG (52-151); and (v) 75 nM Avi-RAF1 RBD-3×FLAG. The assay buffer included: 50 mM Tris pH 7.5, 100 mM NaCl, 5 mM MgCl2, 0.1% BSA, […], 10% DMSO. The bead buffer included: 50 mM Tris pH 7.5, 0.01% o Tween 20. Assay volume of 20 μL was used in a 384 well plate-low volume format. Compound titration: 30-0.0045 μM, 3× dilution series.
(§3) The HTRF assay employed the following protocol:
(§4) Compounds were dispensed in assay plate (384-well, Grenier Bione #784075) using Echo (model 555) with dose response settings: 200 nL final volume, titration from 30 μM as a 10-point dilution series. Protein mix was prepared in assay buffer, and dispensed on plates, 10 μL per well, then incubated for 1 h at room temperature, with 700 rpm shaking. Reagents mix was prepared and dispensed on plates, 10 μL per well, then incubated for 1 h at room temperature, with 700 rpm shaking.
(§5) Plates were analyzed on an Envision plate reader using the following setting: Excitation 320 nm, Bandwidth 75 nM; Emission 615 nm, Bandwidth 85 nM, Gain 100%, Flashes 100, Lag 60 μs. Data were reported as percentage of activity, with DMSO as 100%. Data were plotted and analyzed using Prism 8.
(§6) The biochemical Raf1-KRAS G12D/G12R/G12V/WT-GppNHP disruption assay IC50 of selected compounds described herein are shown in Table 4.

[2] = target: T2, Avi-KRAS G12V (1-169) GppNHp/RAF1 RBD-3×FLAG (52-151) (Homo sapiens, UniProt P01116, G12V); experiment: Disrupting RAS-effector binding HTRF assay, Raf1 RBD-KRAS G12V-GppNHp; details: PPI HTRF, 50 nM Avi-KRAS G12V GppNHp, compound titration 30-0.0045 μM; read-out: Raf1 RBD-KRAS G12V-GppNHp disruption
T2 construct: 50 nM Avi-KRAS G12V (1-169) GppNHp/RAF1 RBD-3×FLAG (52-151)
Procedure: as §1, §2, §3, §4, §5, §6

[3] = target: T3, Avi-KRAS G12R (1-169) GppNHp/RAF1 RBD-3×FLAG (52-151) (Homo sapiens, UniProt P01116, G12R); experiment: Disrupting RAS-effector binding HTRF assay, Raf1 RBD-KRAS G12R-GppNHp; details: PPI HTRF, 50 nM Avi-KRAS G12R GppNHp, compound titration 30-0.0045 μM; read-out: Raf1 RBD-KRAS G12R-GppNHp disruption
T3 construct: 50 nM Avi-KRAS G12R (1-169) GppNHp/RAF1 RBD-3×FLAG (52-151)
Procedure: as §1, §2, §3, §4, §5, §6

[4] = target: T4, Avi-KRAS WT (1-169) GppNHp/RAF1 RBD-3×FLAG (52-151) (Homo sapiens, UniProt P01116); experiment: Disrupting RAS-effector binding HTRF assay, Raf1 RBD-KRAS WT-GppNHp; details: PPI HTRF, 50 nM Avi-KRAS WT GppNHp, compound titration 30-0.0045 μM; read-out: Raf1 RBD-KRAS WT-GppNHp disruption
T4 construct: 50 nM Avi-KRAS WT (1-169) GppNHp/RAF1 RBD-3×FLAG (52-151)
Procedure: as §1, §2, §3, §4, §5, §6

[5] = test system: KRAS G12D protein/effector signaling in GP2d cells; experiment: Cell-based pERK HTRF assay in GP2d cell; details: 1 h, 60 min incubation
Procedure: A pERK assay (Perkin Elmer) was used to determine the effectiveness of compounds in disrupting KRAS G12D protein/effector signaling in cells.
On Day 1, cells (GP2d) were seeded into 96-well plates at 3×10^4 cells/well in 80 μL complete growth media (DMEM, 10% FBS).
(§7) On Day 2, cells were treated with compounds at 0.25% DMSO. The source plate was created with compounds diluted in media at 5-fold the final assay concentration. The compounds were run in a 9-point concentration curve starting at 1 M, with a half-log dilution between concentrations. 20 μL was transferred onto the cell plates (final volume in wells was 100 μL). Plates were harvested after 60 min incubation by aspirating media and adding kit-supplied 1× supplemented lysis buffer to all wells (50 μL per well). Plates were then placed on a plate shaker and incubated at 850 rpm for an additional 30 min.
Antibody mixture solution was prepared by diluting aliquoted d2 and Eu Cryptate antibodies 1:20 in kit supplied detection buffer, and mixing the diluted antibodies solutions (1:1 v:v). 4 μL of this solution was then added to a 384-well detection plate (Perkin Elmer; 6008230).
(§8) Samples were homogenized by pipetting up and down and then transferred (16 μL of cell lysates) from the 96-well cell culture plate to two wells of the HTRF 384-well detection plate containing the antibody solution. Plates were centrifuged (524 g for 1 min) and allowed to incubate between 4 and 24 h at room temperature. Maximum signal was reached after 4 h incubation time and remained stable over a period of 24 hours. Therefore, readings could be made between 4 and 24 h of incubation. Plates were centrifuged again (524 g for 1 min), then analyzed on the EnVision plate reader using the following settings: Excitation 320 nm, Bandwidth 75 nm; Emission 615 nm, Bandwidth 85 nm; Gain 100%; Flashes 100; Lag 60 μs.

[6] = test system: KRAS G12V protein/effector signaling in SW620 cells; experiment: Cell-based pERK HTRF assay in SW620 cell; details: Homo sapiens, SW-620, 1 h incubation
Procedure: pERK assay (Perkin Elmer) was used to determine the effectiveness of compounds in disrupting KRAS G12V protein/effector signaling in cells.
On Day 1, cells (SW620) were seeded into 96-well plates at 3×10^4 cells/well in 80 μL complete growth media (DMEM, 10% FBS).
as §7, with “10 μM,” for “1 M,”, “1 h” for “60 min”
Antibody mixture solution was prepared by diluting aliquoted d2 and Eu Cryptate antibodies 1:20 in kit supplied detection buffer, and mixing the diluted antibodies solutions (1:1 v:v). Four μL of this solution was then added to a 384-well detection plate (Perkin Elmer; 6008230).
as §8

T2 sequence (P01116 1-169 isoform P01116-2 G12V limits assumed): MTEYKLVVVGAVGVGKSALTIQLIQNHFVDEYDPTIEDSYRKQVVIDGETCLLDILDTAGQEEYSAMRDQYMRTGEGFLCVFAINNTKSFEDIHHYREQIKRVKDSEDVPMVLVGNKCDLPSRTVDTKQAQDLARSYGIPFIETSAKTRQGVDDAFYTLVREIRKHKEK
T4 sequence (P01116 1-169 isoform P01116-2 limits assumed): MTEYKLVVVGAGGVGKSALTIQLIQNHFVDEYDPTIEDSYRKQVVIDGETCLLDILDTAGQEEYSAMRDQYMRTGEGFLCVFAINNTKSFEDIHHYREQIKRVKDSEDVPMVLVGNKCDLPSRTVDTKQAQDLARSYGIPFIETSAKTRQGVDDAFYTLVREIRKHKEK
T1 sequence (P01116 1-169 isoform P01116-2 G12D limits assumed): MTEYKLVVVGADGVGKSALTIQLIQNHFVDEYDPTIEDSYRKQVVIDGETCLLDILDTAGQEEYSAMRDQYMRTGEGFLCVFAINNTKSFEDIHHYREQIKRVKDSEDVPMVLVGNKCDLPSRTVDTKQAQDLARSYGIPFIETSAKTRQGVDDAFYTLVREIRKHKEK
T3 sequence (P01116 1-169 isoform P01116-2 G12R limits assumed): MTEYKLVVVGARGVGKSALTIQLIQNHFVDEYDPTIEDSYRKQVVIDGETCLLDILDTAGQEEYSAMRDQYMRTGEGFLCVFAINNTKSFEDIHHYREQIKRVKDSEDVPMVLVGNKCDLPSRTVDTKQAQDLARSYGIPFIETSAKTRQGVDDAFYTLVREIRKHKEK

COc1c(Cl)c(-c2ccc(F)c3sc(N)c(C#N)c23)c(F)c2ncnc(N3CC4CCC(C3)N4)c12 [Compound 35]
IC50 [1]: > 10 µM
IC50 [2]: > 10 µM
IC50 [3]: > 10 µM
IC50 [4]: > 10 µM
IC50 [5]: 0.1 to 1 µM
IC50 [6]: > 10 µM

CO[C@@H](C)COc1nc(N2CC3CCC(C2)N3)c2cc(C(F)(F)F)c(-c3ccc(F)c4sc(N)c(C#N)c34)c(F)c2n1 [Compound 72]
IC50 [5]: ≤ 0.1 µM
IC50 [6]: > 10 µM

COC[C@H](C)Oc1nc(N2CC3CCC(C2)N3)c2cc(C(F)(F)F)c(-c3ccc(F)c4sc(N)c(C#N)c34)c(F)c2n1 [Compound 71]
IC50 [5]: ≤ 0.1 µM
IC50 [6]: > 10 µM

N#Cc1c(N)sc2c(F)ccc(-c3c(C(F)(F)F)cc4c(N5CC6CCC(C5)N6)nc(O[C@H]5CCOC5)nc4c3F)c12 [Compound 69]
IC50 [5]: ≤ 0.1 µM
IC50 [6]: > 10 µM

N#Cc1c(N)sc2c(F)ccc(-c3c(C(F)(F)F)cc4c(N5CC6CCC(C5)N6)nc(O[C@@H]5CCOC5)nc4c3F)c12 [Compound 68]
IC50 [5]: ≤ 0.1 µM
IC50 [6]: > 10 µM

N#Cc1c(N)sc2c(F)ccc(-c3c(C(F)(F)F)cc4c(N5CC6CCC(C5)N6)nc(OC5CCC5)nc4c3F)c12 [Compound 17]
IC50 [1]: 1 to 10 µM
IC50 [2]: > 10 µM
IC50 [3]: > 10 µM
IC50 [4]: 1 to 10 µM
IC50 [5]: 0.1 to 1 µM

C[C@@H]1CN(c2ncnc3c(F)c(-c4ccc(F)c5sc(N)c(C#N)c45)c(C(F)(F)F)cc23)[C@@H](C)CN1 [Compound 64]
IC50 [1]: 1 to 10 µM
IC50 [2]: > 10 µM
IC50 [3]: > 10 µM
IC50 [4]: > 10 µM
IC50 [5]: ≤ 0.1 µM

CO[C@H](C)COc1nc(N2CC3CCC(C2)N3)c2cc(C(F)(F)F)c(-c3ccc(F)c4sc(N)c(C#N)c34)c(F)c2n1 [Compound 66]
IC50 [5]: ≤ 0.1 µM
IC50 [6]: > 10 µM

COc1nc(N2CC3CCC(C2)N3)c2cc(C(F)(F)F)c(-c3ccc(F)c4sc(N)c(C#N)c34)c(F)c2n1 [Compound 1]
IC50 [1]: 1 to 10 µM
IC50 [2]: > 10 µM
IC50 [3]: > 10 µM
IC50 [4]: 1 to 10 µM
IC50 [5]: ≤ 0.1 µM

COC[C@@H](C)Oc1nc(N2CC3CCC(C2)N3)c2cc(C(F)(F)F)c(-c3ccc(F)c4sc(N)c(C#N)c34)c(F)c2n1 [Compound 67]
IC50 [5]: ≤ 0.1 µM
IC50 [6]: > 10 µM
